Assay results published in patent publication EP3628659A1, “SELENOESTER-CONTAINING COMPOUNDS FOR USE IN THE TREATMENT OF MICROBIAL INFECTIONS OR COLORECTAL CANCER” (Consejo Superior De Investigaciones Científicas, priority 2018, dated 2020).

Experiments:
[1] = test system: Candida albicans; assay: Antifungal activity (optical density), Candida albicans; type: cell-based; settings: IC50 class, tested at 50, 100, 150 and 200 µM, OD 570 nm, 37 °C
Description: (§1) The compounds were tested for their antifungal and nematicidal properties against the fungi Candida albicans and Saccharomyces cerevisiae, and against the nematode Steinernema feltiae.
(§2) Fungal cell densities were determined by measuring the optical density (OD) at 570 nm at 0 h (first measurement immediately after incubation), 4 h, and 24 h after incubation at 37 °C; and using a Universal Microplate Reader, EL800, Biotech Instruments, Inc. Highland Park, Winooski, VT, USA. Compounds were dissolved in 1% DMSO and were tested at final concentrations of 50, 100, 150, and 200 µM. Nutrient Sabouraud Dextrose (SD), and Yeast Peptone Dextrose (YPD) were used as media for C. albicans, and S. cerevisiae, respectively. Ketoconazole was used as the positive control for C. albicans and S. cerevisiae. The growth culture with medium for each organism was used as the negative control. The Solvent 1% DMSO stock was used as a solvent control. All experiments were carried out in triplicate and on three different occasions (n = 9).
(§3) For the three organisms considered (C. albicans, S. cerevisiae and S. feltiae), the inhibitory concentration 50% (IC50) is defined as the concentration that inhibits the viability of the respective organism to a 50% of the viability determined for the negative control.

[2] = test system: Steinernema feltiae; assay: Nematicidal activity (viability count), Steinernema feltiae; type: in vivo; settings: IC50 class, tested at 50, 100, 150 and 200 µM, viability at 24 h
Description: as §1
The soil nematodes S. feltiae were purchased from Sautter and Stepper GmbH (Ammerbuch, Germany) and stored at 4 °C in the dark. Before each experiment, fresh samples of nematodes were purchased and stored in the fridge upon arrival and used for a maximum of six days. To perform the assay, 200 mg of nematodes was reconstituted in 50 mL of phosphate buffered saline (PBS) (pH = 7.4) to form a homogenous suspension to revive the nematodes. Afterwards, the individual suspensions were allowed to rest at room temperature. The sedimentation was avoided with occasional shaking in moderate light and at room temperature (25 °C) for 30 min. Viability of the nematodes was determined by counting the live and dead nematodes under a light microscope (TR 200, VWR International, Leuven, Belgium) at four-fold magnification. An initial viability value of more than 90 percent was considered necessary to perform the experiments.
Sample solutions were added into the wells of a 96-well plate to achieve at final concentrations of 50,100, 150, and 200 µM. Afterwards, 10 µL of nematode suspension was added to each well and the final volume in each well was adjusted to 100 µL with phosphate buffered saline (PBS) (pH = 7.4). PBS was used in the negative control and ethanol in the positive control. Viability was determined at 0 h and 24 h by counting the live and dead nematodes, whereby 50 µL of lukewarm water (40 °C) were added to each well to stimulate the nematodes for the 24 h reading. Each experiment was performed independently in triplicate and on three different occasions (n = 9).
as §3

[3] = test system: Colo 320/MDR-LRP multidrug resistant overexpressing ABCB1 (MDR1)-LRP; assay: cells; type: cell-based, human; settings: Homo sapiens, 24 h, read-out: Colo 320 Cytotoxicity
Description: (§4) Cytotoxicity assays in human colonic adenocarcinoma cell lines Colo 205 doxorubicin-sensitive (ATCC-CCL-222) and Colo 320/MDR-LRP multidrug resistant overexpressing ABCB1 (MDR1)-LRP (ATCC-CCL-220.1) were performed following the procedure described by Gajdács et al, 2017, Bioorg Med Chem Lett. 27(4): 797-802. The effects of increasing concentrations of selenium compounds on cell growth were tested in 96-well flat-bottomed microtiter plates. The selectivity of the action towards cancer cells was assessed through the evaluation of cytotoxic activity in a non-tumoral cell line, the MRC-5 human embryonal lung fibroblast cell lines (ATCC CCL-171), as described in Gajdács et al, 2017, Bioorg Med Chem Lett. 27(4): 797-802.
(§5) All cell lines were purchased from LGC Promochem, Teddington, UK. The colonic cells were cultured in RPMI 1640 medium supplemented with 10% heat-inactivated fetal bovine serum, 2 mM L-glutamine, 1 mM Na-pyruvate and 100 mM Hepes. The cell lines were incubated at 37°C, in a 5% CO2, 95% air atmosphere. The semi-adherent human colon cancer cells were detached with Trypsin-Versene (EDTA) solution for 5 min at 37°C. Alternatively, MRC-5 cells was cultured in Eagle's Minimal Essential Medium (EMEM, containing 4.5 g/L glucose) supplemented with a non-essential amino acid mixture, a selection of vitamins and 10% heat-inactivated fetal bovine serum. The cell lines were incubated at 37°C, in a 5% CO2, 95% air atmosphere.
(§6) The compounds were diluted in a volume of 100 µL of medium. The two-fold serial dilutions of selenocompounds were prepared in 100 µL of RPMI 1640, horizontally. The semi-adherent colonic adenocarcinoma cells were treated with Trypsin-Versene (EDTA) solution. They were adjusted to a density of 2×10^4 cells in 100 µL of RPMI 1640 medium, and were added to each well, with the exception of the medium control wells. The final volume of the wells containing selenocompounds and cells was 200 µL.
(§7) The culture plates were incubated at 37°C for 24 h; at the end of the incubation period, 20 µL of MTT (thiazolyl blue tetrazolium bromide, Sigma) solution (from a stock solution of 5 mg/mL) were added to each well. After incubation at 37°C for 4 h, 100 µL of sodium dodecyl sulfate (SDS) (Sigma) solution (10% in 0.01 M HCI) were added to each well and the plates were further incubated at 37°C overnight. Cell growth was determined by measuring the optical density (OD) at 540/630 nm with Multiscan EX ELISA reader (Thermo Labsystems, Cheshire, WA, USA). Inhibition of the cell growth was determined according to the formula below: […] = 100−[(OD sample−OD medium control)/(OD cell control−OD medium control)] × 100 [formula]
(§8) Results are expressed in terms of IC50, defined as the inhibitory dose that reduces the growth of the cells exposed to the tested compounds by 50%. Regarding the selectivity, the selectivity indexes (SI) were calculate, being SI the quotient of the IC50 in non-tumoral cells (MRC-5) and the respective cancer cell (Colo-205 or Colo-320). Compound is considered moderately selective when SI < 6 and ≥ 3; and strongly selective when SI ≥ 6.

[4] = test system: Colo 205 doxorubicin-sensitive; assay: Cytotoxicity assay (MTT) in Colo 205 cells; type: cell-based, human; settings: Homo sapiens, COLO 205, 24 h, read-out: Colo 205 Cytotoxicity
Description: as §4, §5, §6, §7, §8

[5] = test system: Saccharomyces cerevisiae; assay: Antifungal activity (optical density), Saccharomyces cerevisiae; type: cell-based; settings: read-out: Antifungal activity Saccharomyces cerevisiae, IC50 class, tested at 50, 100, 150 and 200 µM, OD 570 nm, 37 °C, read-out: Antifungal activity Streptomyces cerevisiae
Description: as §1, §2, §3

N#CC[Se]C(=O)c1ccc(Cl)c(Cl)c1 [Compound 15, Se-(cyanomethyl) 3,4-dichlorobenzoselenoate] showed an IC50 [1] of 10 to 50 µM, an IC50 [2] greater than 100 µM and an IC50 [3] of 1 to 10 µM. For the same compound, the IC50 [4] was 1 to 10 µM and the IC50 [5] was greater than 100 µM.
Compound N#CCC[Se]C(=O)c1ccc(Cl)cc1Cl [Compound 14, Se-(cyanoethyl) 2,4-dichlorobenzoselenoate] has an IC50 [1] greater than 100 µM, an IC50 [2] of 10 to 50 µM and an IC50 [3] of 1 to 10 µM. For the same compound, the IC50 [4] was 1 to 10 µM and the IC50 [5] was 50 to 100 µM.
N#CCC[Se]C(=O)c1ccc(Cl)cc1 [Compound 4, Se-(cyanoethyl) 4-chlorobenzoselenoate] showed an IC50 [1] greater than 100 µM, an IC50 [2] of 10 to 50 µM and an IC50 [3] of 1 to 10 µM. It also gave an IC50 [4] of 1 to 10 µM and an IC50 [5] of 50 to 100 µM.
CC(C)(C)c1ccc(C(=O)[Se]CC#N)cc1 [Compound 10, Se-(cyanomethyl) 4-tert-butylbenzoselenoate] showed an IC50 [1] of 10 to 50 µM, an IC50 [2] greater than 100 µM and an IC50 [3] of 1 to 10 µM. For the same compound, the IC50 [4] was 1 to 10 µM and the IC50 [5] was greater than 100 µM.
Work on N#CCCC[Se]C(=O)c1ccc(Cl)cc1 [Compound 5, Se-(cyanopropyl) 4-chlorobenzoselenoate] yielded an IC50 [1] of 10 to 50 µM, an IC50 [2] of 1 to 10 µM and an IC50 [3] of 1 to 10 µM. The IC50 [4] was 1 to 10 µM and the IC50 [5] was greater than 100 µM.
Work on N#CC[Se]C(=O)c1ccccc1 [Compound 6, Se-(cyanomethyl) benzoselenoate] yielded an IC50 [1] of 10 to 50 µM, an IC50 [2] of 10 to 50 µM and an IC50 [3] of 1 to 10 µM. It also gave an IC50 [4] of 1 to 10 µM and an IC50 [5] greater than 100 µM.
Work on N#CC[Se]C(=O)Cc1ccccc1 [Compound 11, Se-(cyanomethyl) 2-phenylethaneselenoate] yielded an IC50 [1] of 10 to 50 µM, an IC50 [2] of 50 to 100 µM and an IC50 [3] of less than 1 µM. The IC50 [4] was less than 1 µM and the IC50 [5] was greater than 100 µM.
With N#CC[Se]C(=O)c1ccc(F)cc1 [Compound 1, Se-(cyanomethyl) 4-fluorobenzoselenoate] the IC50 [1] was 10 to 50 µM, the IC50 [2] was 50 to 100 µM and the IC50 [3] was 1 to 10 µM. For the same compound, the IC50 [4] was 1 to 10 µM and the IC50 [5] was greater than 100 µM.
Compound CC(=O)Oc1ccccc1C(=O)[Se]CC#N [Compound 17, Se-(cyanomethyl) 2-acetoxybenzoselenoate] has an IC50 [1] of 10 to 50 µM, an IC50 [2] of 10 to 50 µM and an IC50 [3] of 1 to 10 µM. The IC50 [4] was less than 1 µM and the IC50 [5] was 10 to 50 µM.
Cc1ccc(C(=O)[Se]CCC#N)cc1 [Compound 8, Se-(cyanoethyl) 4-methylbenzoselenoate] was tested, and the IC50 [1] was greater than 100 µM, the IC50 [2] was 10 to 50 µM and the IC50 [3] was 1 to 10 µM. The IC50 [4] was 1 to 10 µM and the IC50 [5] was 50 to 100 µM.
In the case of N#CC[Se]C(=O)c1ccc(Cl)cc1Cl [Compound 13, Se-(cyanomethyl) 2,4-dichlorobenzoselenoate], the IC50 [1] is reported as 10 to 50 µM, the IC50 [2] is reported as 10 to 50 µM and the IC50 [3] is reported as 1 to 10 µM. It also gave an IC50 [4] of 1 to 10 µM and an IC50 [5] greater than 100 µM.
Compound Cc1ccc(C(=O)[Se]CC#N)cc1 [Compound 7, Se-(cyanomethyl) 4-methylbenzoselenoate] has an IC50 [1] of 10 to 50 µM, an IC50 [2] of 1 to 10 µM and an IC50 [3] of 1 to 10 µM. For the same compound, the IC50 [4] was 1 to 10 µM and the IC50 [5] was greater than 100 µM.
N#CC[Se]C(=O)c1ccc(Cl)cc1 [Compound 3, Se-(cyanomethyl) 4-chlorobenzoselenoate] was tested, and the IC50 [1] was 10 to 50 µM, the IC50 [2] was 10 to 50 µM and the IC50 [3] was 1 to 10 µM. For the same compound, the IC50 [4] was less than 1 µM and the IC50 [5] was greater than 100 µM.
Cc1ccc(C(=O)[Se]CCCC#N)cc1 [Compound 9, Se-(cyanopropyl) 4-methylbenzoselenoate] was tested, and the IC50 [1] was 50 to 100 µM, the IC50 [2] was 50 to 100 µM and the IC50 [3] was 1 to 10 µM. It also gave an IC50 [4] of 1 to 10 µM and an IC50 [5] greater than 100 µM.
